Data taken from ChEMBL document CHEMBL5625167, “In vitro bioevaluation and docking study of dihydrosphingosine and ethambutol analogues against sensitive and multi-drug resistant Mycobacterium tuberculosis” (Eur J Med Chem, 2023).
In brackets after ≈: the same amount, converted by molar mass. Several values for one entry are separate records, joined by “and”; a condition that tells them apart may be missing. Identical values can stand only once. Activity calls are given as the source filed them. The calls are words filed in the database; no cut-off is given here.

Assays:
[1] = test system: Mycobacterium tuberculosis; assay: Antimycobacterial activity against Mycobacterium tuberculosis H37Rv ATCC 25618 assessed as induction of morphological changes by measuring increase in lipid inclusions at MIC incubated for 96 hrs by TEM analysis; type: functional, organism-based
[2] = test system: Mycobacterium tuberculosis; assay: Antimycobacterial activity against Mycobacterium tuberculosis H37Rv ATCC 25618 incubated for 7 days by resazurin dye based two-dimensional micro dilution checkerboard assay in presence of 1-((3,4,5-trimethoxybenzyl)oxy)heptadecan-2-amine; type: functional; details: time 7 day
[3] = Cytotoxicity against human HepG2 cells assessed as reduction in cell population incubated for 48 hrs by MTT assay; type: toxicity, cell-based
[4] = test system: Mycobacterium tuberculosis; assay: Antimycobacterial activity against Mycobacterium tuberculosis H37Rv ATCC 25618 assessed as fractional inhibitory concentration incubated for 7 days in presence of 2-aminoheptadecan-1-ol by resazurin dye based two-dimensional micro dilution checkerboard assay; type: functional; details: time 7 day
[5] = test system: Mycobacterium tuberculosis; assay: Antimycobacterial activity against Mycobacterium tuberculosis H37Rv ATCC 25618 assessed as induction of morphological changes by measuring extrusion of cytosolic material at MIC incubated for 96 hrs by TEM analysis; type: functional, organism-based
[6] = test system: Mycobacterium tuberculosis; assay: Antimycobacterial activity against Mycobacterium tuberculosis H37Rv ATCC 25618 incubated for 7 days by resazurin dye based two-dimensional micro dilution checkerboard assay in presence of 1-(benzyloxy)heptadecan-2-amine; type: functional; details: time 7 day
[7] = Cytotoxicity against African green monkey Vero cells assessed as reduction in cell population incubated for 48 hrs by MTT assay; type: toxicity, cell-based; details: chlorocebus sabaeus
[8] = test system: Mycobacterium tuberculosis; assay: Potency index, ratio of ethambutol MIC to test compound MIC for antimycobacterial activity against isoniazid, rifampicin, ethambutol and pyrazinamide sensitive Mycobacterium tuberculosis H37Rv ATCC 25618 assessed as inhibition of bacterial growth incubated for 7 days by resazurin dye based colorimetric method analysis; type: functional; details: time 7 day
[9] = test system: Mycobacterium tuberculosis; assay: Antimycobacterial activity against isoniazid, rifampicin, ethambutol and pyrazinamide sensitive Mycobacterium tuberculosis H37Rv ATCC 25618 assessed as inhibition of bacterial growth incubated for 7 days by resazurin dye based colorimetric method analysis; type: functional; details: H37Rv ATCC 25618, 168 h, time 7 day
[10] = test system: Mycobacterium tuberculosis; assay: Antimycobacterial activity against Mycobacterium tuberculosis H37Rv ATCC 25618 assessed as induction of morphological changes by measuring disruption and discontinuity of the bacterial envelope at MIC incubated for 96 hrs by TEM analysis; type: functional, organism-based
[11] = Cytotoxicity against mouse J774.A1 cells assessed as reduction in cell population incubated for 48 hrs by MTT assay; type: toxicity, cell-based
[12] = test system: Mycobacterium tuberculosis; assay: Antimycobacterial activity against Mycobacterium tuberculosis H37Rv ATCC 25618 incubated for 7 days by resazurin dye based two-dimensional micro dilution checkerboard assay in presence of rifampicin; type: functional; details: time 7 day
[13] = test system: Mycobacterium tuberculosis; assay: Additive antimycobacterial activity against Mycobacterium tuberculosis H37Rv ATCC 25618 assessed as fractional inhibitory concentration index incubated for 7 days by resazurin dye based two-dimensional micro dilution checkerboard assay in presence of isoniazid; type: functional; details: time 7 day
[14] = test system: Mycobacterium tuberculosis; assay: Additive antimycobacterial activity against Mycobacterium tuberculosis H37Rv ATCC 25618 incubated for 7 days by resazurin dye based two-dimensional micro dilution checkerboard assay in presence of levofloxacin; type: functional; details: time 7 day
[15] = test system: Mycolicibacterium smegmatis; assay: Antimycobacterial activity against Mycobacterium smegmatis ATCC607 assessed as reduction in bacterial viability at 16 uM incubated for 24 hrs by time kill assay relative to control; type: functional
[16] = test system: Mycolicibacterium smegmatis; assay: Antimycobacterial activity against Mycobacterium smegmatis ATCC607 incubated for 24 hrs by resazurin dye based broth microdilution method; type: functional
Klebsiella pneumoniae = assay: Antibacterial activity against Klebsiella pneumoniae ATCC 13883 incubated for 18 hrs by resazurin dye based broth microdilution method; type: functional
[17] = test system: Mycobacterium tuberculosis; assay: Additive antimycobacterial activity against Mycobacterium tuberculosis H37Rv ATCC 25618 assessed as fractional inhibitory concentration index incubated for 7 days by resazurin dye based two-dimensional micro dilution checkerboard assay in presence of levofloxacin; type: functional; details: time 7 day
[18] = test system: Mycobacterium tuberculosis; assay: Additive antimycobacterial activity against Mycobacterium tuberculosis H37Rv ATCC 25618 assessed as fractional inhibitory concentration index incubated for 7 days by resazurin dye based two-dimensional micro dilution checkerboard assay in presence of amikacin; type: functional; details: time 7 day
[19] = test system: Mycobacterium tuberculosis; assay: Additive antimycobacterial activity against Mycobacterium tuberculosis H37Rv ATCC 25618 assessed as fractional inhibitory concentration index incubated for […] by micro dilution checkerboard assay in presence of rifampicin; type: functional
[20] = test system: Mycobacterium tuberculosis; assay: Additive antimycobacterial activity against Mycobacterium tuberculosis H37Rv ATCC 25618 assessed as fractional inhibitory concentration index incubated for 7 days by resazurin dye based two-dimensional micro dilution checkerboard assay in presence of ethambutol; type: functional; details: time 7 day
[21] = test system: Mycobacterium tuberculosis; assay: Additive antimycobacterial activity against Mycobacterium tuberculosis H37Rv ATCC 25618 incubated for 7 days by resazurin dye based two-dimensional micro dilution checkerboard assay in presence of ethambutol; type: functional; details: time 7 day
[22] = test system: Mycobacterium tuberculosis; assay: Additive antimycobacterial activity against Mycobacterium tuberculosis H37Rv ATCC 25618 incubated for 7 days by resazurin dye based two-dimensional micro dilution checkerboard assay in presence of amikacin; type: functional; details: time 7 day
[23] = test system: Mycolicibacterium smegmatis; assay: Antimycobacterial activity against Mycobacterium smegmatis ATCC607 assessed as reduction in bacterial viability at 16 uM measured after 72 hrs by time kill assay in presence of rifampicin relative to control; type: functional
[24] = test system: Mycobacterium tuberculosis; assay: Antimycobacterial activity against Mycobacterium tuberculosis H37Rv ATCC 25618 assessed as fractional inhibitory concentration index incubated for 7 days by resazurin dye based two-dimensional micro dilution checkerboard assay in presence of rifampicin; type: functional; details: time 7 day
[25] = test system: Mycobacterium tuberculosis; assay: Additive antimycobacterial activity against Mycobacterium tuberculosis H37Rv ATCC 25618 incubated for 7 days by resazurin dye based two-dimensional micro dilution checkerboard assay in presence of isoniazid; type: functional; details: time 7 day
Staphylococcus aureus = assay: Antibacterial activity against Staphylococcus aureus ATCC 25923 incubated for 18 hrs by resazurin dye based broth microdilution method; type: functional
[26] = test system: Mycolicibacterium smegmatis; assay: Antimycobacterial activity against Mycobacterium smegmatis ATCC607 infected in mouse J774 cells assessed as reduction in intracellular bacterial count at 19.5 to 39 uM measured after 24 hrs; type: functional, organism-based; details: dose 19.5-39 µM
[27] = test system: Mycolicibacterium smegmatis; assay: Antimycobacterial activity against Mycobacterium smegmatis ATCC607 assessed as reduction in bacterial viability at 19.5 uM incubated for 24 hrs by time kill assay relative to control; type: functional
[28] = test system: Mycobacterium tuberculosis; assay: Synergistic antimycobacterial activity against Mycobacterium tuberculosis H37Rv ATCC 25618 incubated for 7 days by resazurin dye based two-dimensional micro dilution checkerboard assay in presence of rifampicin; type: functional; details: time 7 day
[29] = test system: Mycobacterium tuberculosis; assay: Synergistic antimycobacterial activity against Mycobacterium tuberculosis H37Rv ATCC 25618 assessed as fractional inhibitory concentration index incubated for 7 days by resazurin dye based two-dimensional micro dilution checkerboard assay in presence of rifampicin; type: functional; details: time 7 day
[30] = test system: Mycobacterium tuberculosis; assay: Antimycobacterial activity against Mycobacterium tuberculosis H37Rv ATCC 25618 assessed as reduction in concentration required to inhibit bacterial growth incubated for 7 days by resazurin dye based two-dimensional micro dilution checkerboard assay in presence of rifampicin relative to control; type: functional; set-up: scale not given: the % may be the effect or the level left; details: time 7 day
[31] = test system: Mycolicibacterium smegmatis; assay: Antimycobacterial activity against Mycobacterium smegmatis ATCC607 infected in mouse J774 cells assessed as reduction in intracellular bacterial count at 32 uM measured after 6 hrs relative to control; type: functional; set-up: scale not given: the % may be the effect or the level left
[32] = test system: Mycolicibacterium smegmatis; assay: Antimycobacterial activity against Mycobacterium smegmatis ATCC607 infected in mouse J774 cells assessed as log reduction in intracellular bacterial count at 2 times MIC measured after 24 hrs relative to control; type: functional
[33] = test system: Mycolicibacterium smegmatis; assay: Antimycobacterial activity against Mycobacterium smegmatis ATCC607 infected in mouse J774 cells assessed as log reduction in intracellular bacterial count at MIC in presence of rifampicin measured for 24 hrs; type: functional
[34] = test system: Mycolicibacterium smegmatis; assay: Antimycobacterial activity against Mycobacterium smegmatis ATCC607 assessed as reduction in bacterial viability at 16 uM by time kill assay; type: functional, organism-based; details: time 0-72 hrs, TDE = time-dependent effect
[35] = test system: Mycolicibacterium smegmatis; assay: Intracellular antimycobacterial activity against Mycobacterium smegmatis ATCC607 infected in mouse J774 cells assessed as reduction in bacterial count at 16 to 32 uM measured after 24 hrs; type: functional, organism-based; details: dose 16-32 µM
[36] = test system: Mycolicibacterium smegmatis; assay: Antimycobacterial activity against Mycobacterium smegmatis ATCC607 infected in mouse J774 cells assessed as reduction in intracellular bacterial count at MIC in presence of rifampicin measured for 24 hrs relative to control; type: functional; set-up: scale not given: the % may be the effect or the level left
[37] = test system: Mycolicibacterium smegmatis; assay: Antimycobacterial activity against Mycobacterium smegmatis ATCC607 infected in mouse J774 cells assessed as reduction in intracellular bacterial count at 2 times MIC measured after 24 hrs relative to control; type: functional; set-up: scale not given: the % may be the effect or the level left

CC[C@@H](CO)NCCN[C@@H](CC)CO [ETHAMBUTOL]
Activity [1]: Active | FIC [2]: 0.5 | CC50 at 48 h [3]: > 1440 µM | FIC [4]: 0.125 | Activity [5]: Active | FIC [6]: 0.5 | CC50 at 48 h [7]: 641 µM | Ratio [8]: 100 | MIC [9]: 3.6 µM and 1 µg/mL | Activity [10]: Active | CC50 at 48 h [11]: > 1440 µM

CCCCCCCCCCCCCCCC(N)COCc1ccccc1 (stereo not drawn)
FIC [12]: 0.5 | fractional inhibitory concentration index (FICI) [13]: 0.75 | FIC [14]: 0.25 | Activity [15]: 24.56% | MIC [16]: 16 µM (≈ 5.79 µg/mL) | CC50 at 48 h [3]: 99.2 µM | MIC (Klebsiella pneumoniae): 128 µM (≈ 46.3 µg/mL) | fractional inhibitory concentration index (FICI) [17]: 0.75 | fractional inhibitory concentration index (FICI) [18]: 0.75 | CC50 at 48 h [7]: 42.2 µM | fractional inhibitory concentration index (FICI) [19]: 0.56 | fractional inhibitory concentration index (FICI) [20]: 1 | Ratio [8]: 80 | FIC [21]: 0.5 | FIC [22]: 0.5 | MIC [9]: 4.5 µM (≈ 1.63 µg/mL) | Activity [23]: >99.9% | fractional inhibitory concentration index (FICI) [24]: 0.56 | CC50 at 48 h [11]: 5.94 µM | FIC [25]: 0.25 | MIC (Staphylococcus aureus): 16 µM (≈ 5.79 µg/mL)

CO[C@H]1/C=C/O[C@@]2(C)Oc3c(C)c(O)c4c(O)c(c(/C=N/N5CCN(C)CC5)c(O)c4c3C2=O)NC(=O)/C(C)=C\C=C\[C@H](C)[C@H](O)[C@@H](C)[C@@H](O)[C@@H](C)[C@H](OC(C)=O)[C@@H]1C [RIFAMPIN]
FIC [2]: 0.25 | MIC [16]: 19.5 µM (≈ 16 µg/mL) | FIC [6]: 0.063 | Activity [26]: Active | Activity [27]: 27% | MIC [9]: 0.04 µM and 0.03 µg/mL

CCCCCCCCCCCCCCCC(N)CO (stereo not drawn)
FIC [28]: 0.25 | fractional inhibitory concentration index (FICI) [13]: 0.75 | FIC [14]: 0.5 | MIC [16]: 128 µM (≈ 34.8 µg/mL) | CC50 at 48 h [3]: 129 µM | MIC (Klebsiella pneumoniae): 512 µM (≈ 139 µg/mL) | fractional inhibitory concentration index (FICI) [17]: 0.53 | fractional inhibitory concentration index (FICI) [18]: 0.56 | CC50 at 48 h [7]: 125 µM | fractional inhibitory concentration index (FICI) [20]: 0.63 | Ratio [8]: 237 | FIC [21]: 0.5 | FIC [22]: 0.5 | fractional inhibitory concentration index (FICI) [29]: 0.38 | MIC [9]: 1.52 µM (≈ 0.413 µg/mL) | Activity [30]: 87.5% | CC50 at 48 h [11]: 10.2 µM | FIC [25]: 0.25 | MIC (Staphylococcus aureus): 16 µM (≈ 4.34 µg/mL)

CCCCCCCCCCCCCCCC(N)COCc1cc(OC)c(OC)c(OC)c1 (stereo not drawn)
Activity [31]: 6.2% | FIC [28]: 0.25 | Activity [32]: 1.9 log10CFU/ml | fractional inhibitory concentration index (FICI) [13]: 0.63 | Activity [1]: Active | FIC [14]: 0.127 | Activity [15]: 99.9% | MIC [16]: 16 µM (≈ 7.23 µg/mL) | Activity [33]: >1 log10CFU/ml | CC50 at 48 h [3]: 149 µM | Activity [34]: Tde | MIC (Klebsiella pneumoniae): 512 µM (≈ 231 µg/mL) | fractional inhibitory concentration index (FICI) [17]: 0.63 | Activity [35]: Active | Activity [5]: Active | fractional inhibitory concentration index (FICI) [18]: 0.63 | CC50 at 48 h [7]: 17.7 µM | fractional inhibitory concentration index (FICI) [20]: 0.63 | Ratio [8]: 45 | FIC [21]: 0.013 | FIC [22]: 0.126 | fractional inhibitory concentration index (FICI) [29]: 0.5 | Activity [36]: 12.2% | MIC [9]: 8 µM (≈ 3.61 µg/mL) | Activity [10]: Active | Activity [23]: >99.9% | Activity [30]: 75% | Activity [37]: 33.3% | CC50 at 48 h [11]: 120 µM | FIC [25]: 0.125 | MIC (Staphylococcus aureus): ≤ 4 µM
